Results on 2 compounds are retold here after patent US20150164967A1, “Personal Care Products Containing Extracts of Rosemary” (Kemin Industries, Inc., priority 2013, published 2015).

The structures appear in SMILES notation.

The test relates to vesperlysine-like and pentosidine-like AGEs from albumin glycation. Briefly: Inhibition of AGE formation from albumin glycation (BSA + D-ribose, fluorescence). The format is biochemical, bovine. The procedure:
Following solutions were prepared for the assay: Reagent A: Phosphate buffer pH 7.0: 0.03 M KH2PO4 and 0.03 M K2HPO4 in ultrapure water (Millipore® Synergy® UV); Reagent B: 1.3 mg/mL aminoguanidine hydrochloride in phosphate buffer; Reagent C: 32 mg/mL Rosamox-Z in phosphate buffer; Reagent D: 30 mg/mL Zemea® Propanediol in phosphate buffer; Reagent E: 30 mg/mL BSA in phosphate buffer; Reagent F: 1.5 M D-ribose in phosphate buffer.
All the diluted samples (Sample B1-B5) were used for the AGE reaction.
Samples C1-C5 were diluted from the sample stock (reagent C) solution. Samples C6-C9 were diluted from Sample C5. All the diluted samples (Sample C1-C9) were used for the AGE reaction. Test samples D were diluted the same way as test samples C.
(Following Sero, L. et al. (2013) Tuning a 96-Well Microtiter Plate Fluorescence-Based Assay to Identify AGE Inhibitors in Crude Plant Extracts. Molecules. 18, 14320-14339.) A 96-well plate was prepared as follows (each sample was prepared in triplicate): Blank wells—50 μL BSA stock (reagent E) solution and 100 μL phosphate buffer (reagent A); Negative control wells—50 μL BSA stock (reagent E) and 50 μL diluent (Reagent A) to three empty wells; Positive control wells—50 μL BSA stock (reagent E) and 50 μL Aminoguanidine hydrochloride samples (Sample B1-B5); All treatments—50 μL BSA stock (reagent E) and 50 μL treatments (Sample C1-C9 and D1-D9); 50 μL D-ribose solutions (Reagent F) were added to every well except the blank wells.
The plates were read for fluorescence at λexc 370 nm λem 440 nm for versperlysines-like AGEs and λexc 335 nm λem 385 nm for pentosidine like AGEs. The plate was wrapped with aluminum foil to avoid light exposure and incubated at 37° C. and read again after 24 hours.
% inhibition was calculated as ((control 24 hours−control 0 hours)−(treatment 24 hours−treatment 0 hours))/(control 24 hours−control 0 hours).
FIG. 10 is a chart of the inhibition effect of Rosamox-Z on the formation of vesperlysine-like and pentosidine-like AGEs from albumin glycation. […]

Turning to `CC(C)c1cc2c(c(O)c1O)[C@@]1(C(=O)O)CCCC(C)(C)[C@@H]1CC2` [carnosic acid], the “predicted 1050 for these reactions” value (worked out from the Rosamox-Z value and 4% carnosic acid content) was 0.4 to 0.6 mg/mL.
Turning to `[2H]C([2H])(O)C([2H])([2H])C([2H])([2H])O` [Zemea® Propanediol, Propanediol], under “0-15 mg/mL, λexc 335 nm λem 385 nm, 24 h at 37° C.”, the “inhibition effect for pentosidine-like AGEs” value is “around 10%”. In addition, under “0-15 mg/mL, λexc 370 nm λem 440 nm, 24 h at 37° C.”, the “promoting effect for vesperlysines-like AGEs” value is given as “around 5%”.
